Results: patent US8729089B2 (Gilead Sciences, Inc., priority 2006, dated 2014)

Key:
[1] = test system: HCV replicon in human hepatoma Huh-7 cell line; test: Anti-HCV replicon assay (EC50, luciferase); type: cell-based; settings: Hepatitis C virus, Huh-7, 72 h
Method in brief: (§1)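 Cytotoxicity (CC50) measured by CellTiter-Glo and antiviral activity (EC50) by luciferase signal from lysed cells, both by luminescence. Replicon-bearing Huh-7 cells, 6000 per well, incubated 3 days at 37 °C with threefold-diluted compound (0.5% DMSO for DMSO-dissolved compounds).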

[2] = CC50 assay (CellTiter-Glo) in Huh-7 HCV replicon cells; type: cell-based, human; settings: human, 3 days incubation, CellTiter-Glo readout
Method in brief: as §1

| Compound | EC50 [1] [µM] | CC50 at 3 days [2] [µM] |
| --- | --- | --- |
| Cc1noc(C)c1-c1ccc2nc(NCc3ccc(S(N)(=O)=O)cc3)nc(NCC(F)(F)F)c2n1 [Example 165, 4-{[6-(3,5-Dimethyl-isoxazol-4-yl)-4-(2,2,2-trifluoro-ethylamino)-pyrido[3,2-d]pyrimidin-2-ylamino]-methyl}-benzenesulfonamide] | < 0.1 | < 5 |
| Cn1cc(-c2ccc3nc(NCc4ccc(S(N)(=O)=O)cc4)nc(NCC(F)(F)F)c3n2)cn1 [Example 166, 4-{[6-(1-Methyl-1H-pyrazol-4-yl)-4-(2,2,2-trifluoro-ethylamino)-pyrido[3,2-d]pyrimidin-2-ylamino]-methyl}-benzenesulfonamide] | < 0.1 | > 25 |
| NS(=O)(=O)c1ccc(CNc2nc(NCC(F)(F)F)c3nc(-c4cnc(N5CCCC5)cn4)ccc3n2)cc1 [Example 167, 4-{[6-(5-Pyrrolidin-1-yl-pyrazin-2-yl)-4-(2,2,2-trifluoro-ethylamino)-pyrido[3,2-d]pyrimidin-2-ylamino]-methyl}-benzenesulfonamide] | < 0.1 | < 5 |
| NS(=O)(=O)c1ccc(CNc2nc(NCC(F)(F)F)c3nc(-c4ccnc(C(F)(F)F)c4)ccc3n2)cc1 [Example 168, 4-{[4-(2,2,2-Trifluoro-ethylamino)-6-(2-trifluoromethyl-pyridin-4-yl)-pyrido[3,2-d]pyrimidin-2-ylamino]-methyl}-benzenesulfonamide] | < 0.1 | > 25 |
| Nc1cc(-c2ccc3nc(NCc4ccc(S(N)(=O)=O)cc4)nc(NCC(F)(F)F)c3n2)ccn1 [Example 169, 4-{[6-(2-Amino-pyridin-4-yl)-4-(2,2,2-trifluoro-ethylamino)-pyrido[3,2-d]pyrimidin-2-ylamino]-methyl}-benzenesulfonamide] | < 0.1 | > 25 |
| NS(=O)(=O)c1ccc(CNc2nc(NCC(F)(F)F)c3nc(-c4csc(N5CCCC5)n4)ccc3n2)cc1 [Example 170, 4-{[6-(2-Pyrrolidin-1-yl-thiazol-4-yl)-4-(2,2,2-trifluoro-ethylamino)-pyrido[3,2-d]pyrimidin-2-ylamino]-methyl}-benzenesulfonamide] | < 0.1 | < 5 |
| NS(=O)(=O)c1ccc(CNc2nc(NCC(F)(F)F)c3nc(-c4ccc(O)cc4)ccc3n2)cc1 [Example 171, 4-{[6-(4-Hydroxy-phenyl)-4-(2,2,2-trifluoro-ethylamino)-pyrido[3,2-d]pyrimidin-2-ylamino]-methyl}-benzenesulfonamide] | < 0.1 | > 25 |
| COc1cc(-c2ccc3nc(NCc4ccc(S(N)(=O)=O)cc4)nc(NCC(F)(F)F)c3n2)ccn1 [Example 172, 4-{[6-(2-Methoxy-pyridin-4-yl)-4-(2,2,2-trifluoro-ethylamino)-pyrido[3,2-d]pyrimidin-2-ylamino]-methyl}-benzenesulfonamide] | < 0.1 | 5 to 25 |
| N#Cc1cc(-c2ccc3nc(NCc4ccc(S(N)(=O)=O)cc4)nc(NCC(F)(F)F)c3n2)ccn1 [Example 173, 4-{[6-(2-Cyano-pyridin-4-yl)-4-(2,2,2-trifluoro-ethylamino)-pyrido[3,2-d]pyrimidin-2-ylamino]-methyl}-benzenesulfonamide] | < 0.1 | > 25 |
| Nc1ncc(-c2ccc3nc(NCc4ccc(S(N)(=O)=O)cc4)nc(NCC(F)(F)F)c3n2)cn1 [Example 174, 4-{[6-(2-Amino-pyrimidin-5-yl)-4-(2,2,2-trifluoro-ethylamino)-pyrido[3,2-d]pyrimidin-2-ylamino]-methyl}-benzenesulfonamide] | < 0.1 | > 25 |
| N#Cc1cccc(-c2ccc3nc(NCc4ccc(S(N)(=O)=O)cc4)nc(NCC(F)(F)F)c3n2)c1 [Example 175, 4-{[6-(3-Cyano-phenyl)-4-(2,2,2-trifluoro-ethylamino)-pyrido[3,2-d]pyrimidin-2-ylamino]-methyl}-benzenesulfonamide] | < 0.1 | > 25 |
| CN1CC[C@H](C(=O)Nc2ccc(-c3ccc4nc(NCc5ccc(S(N)(=O)=O)cc5)nc(OC5CC5)c4n3)cc2)C1 [Example 176, 1-Methyl-pyrrolidine-3-carboxylic acid {4-[4-cyclopropoxy-2-(4-sulfamoyl-benzylamino)-pyrido[3,2-d]pyrimidin-6-yl]-phenyl}-amide] | < 0.1 | > 25 |
| CN1CC[C@H](C(=O)Nc2ccc(-c3ccc4nc(NCc5ccc(S(N)(=O)=O)cc5)nc(NCC(F)(F)F)c4n3)cc2F)C1 [Example 177, 1-Methyl-pyrrolidine-3-carboxylic acid {2-fluoro-4-[2-(4-sulfamoyl-benzylamino)-4-(2,2,2-trifluoro-ethylamino)-pyrido[3,2-d]pyrimidin-6-yl]-phenyl}-amide] | < 0.1 | 5 to 25 |
| CN1CC[C@H](C(=O)Nc2ccc(-c3ccc4nc(NCc5ccc(S(N)(=O)=O)cc5)nc(NCC(F)(F)F)c4n3)cc2)C1 [Example 178, 1-Methyl-pyrrolidine-3-carboxylic acid {4-[2-(4-sulfamoyl-benzylamino)-4-(2,2,2-trifluoro-ethylamino)-pyrido[3,2-d]pyrimidin-6-yl]-phenyl}-amide] | < 0.1 | 5 to 25 |
| NS(=O)(=O)c1ccc(CNc2nc(NCC(F)(F)F)c3nc(-c4ccc(N5CCC(O)C5=O)cc4)ccc3n2)cc1 (stereo not drawn) [Example 179, 4-{[6-[4-(3-Hydroxy-2-oxo-pyrrolidin-1-yl)-phenyl]-4-(2,2,2-trifluoro-ethylamino)-pyrido[3,2-d]pyrimidin-2-ylamino]-methyl}-benzenesulfonamide] | < 0.1 | > 25 |
| NS(=O)(=O)c1ccc(CNc2nc(NCC(F)(F)F)c3nc(-c4ccc(NC(=O)C5(O)CC5)cc4)ccc3n2)cc1 [Example 180, 1-Hydroxy-cyclopropanecarboxylic acid {4-[2-(4-sulfamoyl-benzylamino)-4-(2,2,2-trifluoro-ethylamino)-pyrido[3,2-d]pyrimidin-6-yl]-phenyl}-amide] | < 0.1 | > 25 |
| NS(=O)(=O)c1ccc(CNc2nc(NC3CC3)c3nc(-c4ccc(NC(=O)C5(O)CC5)cc4)ccc3n2)cc1 [Example 181, 1-Hydroxy-cyclopropanecarboxylic acid {4-[4-cyclopropylamino-2-(4-sulfamoyl-benzylamino)-pyrido[3,2-d]pyrimidin-6-yl]-phenyl}-amide] | < 0.1 | < 5 |
| N[C@@H](CO)C(=O)Nc1ccc(-c2ccc3nc(NCc4ccc(S(N)(=O)=O)cc4)nc(NC4CC4)c3n2)cc1 [Example 182, 2-Amino-N-{4-[4-cyclopropylamino-2-(4-sulfamoyl-benzylamino)-pyrido[3,2-d]pyrimidin-6-yl]-phenyl}-3-hydroxy-propionamide] | < 0.1 | 5 to 25 |
| Nc1ncc(-c2ccc3nc(NCc4ccc(S(N)(=O)=O)cc4)nc(NC4CC4)c3n2)s1 [Example 183, 4-{[6-(2-Amino-thiazol-5-yl)-4-cyclopropylamino-pyrido[3,2-d]pyrimidin-2-ylamino]-methyl}-benzenesulfonamide] | < 0.1 | 5 to 25 |
| NS(=O)(=O)c1ccc(CNc2nc(NC3CC3)c3nc(-c4ccc(F)c(NS(=O)(=O)C5CC5)c4)ccc3n2)cc1 [Example 184, 4-{[6-(3-Cyclopropanesulfonylamino-4-fluoro-phenyl)-4-cyclopropylamino-pyrido[3,2-d]pyrimidin-2-ylamino]-methyl}-benzenesulfonamide] | < 0.1 | < 5 |
| NS(=O)(=O)c1ccc(CNc2nc(NC3CC3)c3nc(-c4ccc(C(=O)NC5CC5)cc4)ccc3n2)cc1 [Example 185, N-Cyclopropyl-4-[4-cyclopropylamino-2-(4-sulfamoyl-benzylamino)-pyrido[3,2-d]pyrimidin-6-yl]-benzamide] | < 0.1 | 5 to 25 |
| NC(=O)c1ccc(-c2ccc3nc(NCc4ccc(S(N)(=O)=O)cc4)nc(NC4CC4)c3n2)cc1 [Example 186, 4-[4-Cyclopropylamino-2-(4-sulfamoyl-benzylamino)-pyrido[3,2-d]pyrimidin-6-yl]-benzamide] | < 0.1 | > 25 |
| Nc1cnc(-c2ccc3nc(NCc4ccc(S(N)(=O)=O)cc4)nc(NCC(F)(F)F)c3n2)cn1 [Example 187, 4-{[6-(5-Amino-pyrazin-2-yl)-4-(2,2,2-trifluoro-ethylamino)-pyrido[3,2-d]pyrimidin-2-ylamino]-methyl}-benzenesulfonamide] | < 0.1 | > 25 |
| Nc1ncc(-c2ccc3nc(NCc4ccc(S(N)(=O)=O)cc4)nc(NCC(F)(F)F)c3n2)s1 [Example 188, 4-{[6-(2-Amino-thiazol-5-yl)-4-(2,2,2-trifluoro-ethylamino)-pyrido[3,2-d]pyrimidin-2-ylamino]-methyl}-benzenesulfonamide] | < 0.1 | 5 to 25 |
| NS(=O)(=O)c1ccc(CNc2nc(NCC(F)(F)F)c3nc(-c4cn[nH]c4)ccc3n2)cc1 [Example 189, 4-{[6-(1H-Pyrazol-4-yl)-4-(2,2,2-trifluoro-ethylamino)-pyrido[3,2-d]pyrimidin-2-ylamino]-methyl}-benzenesulfonamide] | < 0.1 | 5 to 25 |
| NS(=O)(=O)c1ccc(CNc2nc(NCC(F)(F)F)c3nc(-c4ccc(F)nc4)ccc3n2)cc1 [Example 190, 4-{[6-(6-Fluoro-pyridin-3-yl)-4-(2,2,2-trifluoro-ethylamino)-pyrido[3,2-d]pyrimidin-2-ylamino]-methyl}-benzenesulfonamide] | < 0.1 | < 5 |
| NS(=O)(=O)c1ccc(CNc2nc(NCC(F)(F)F)c3nc(-c4ccc(N5CCCC5=O)cc4)ccc3n2)cc1 [Example 191, 4-{[6-[4-(2-Oxo-pyrrolidin-1-yl)-phenyl]-4-(2,2,2-trifluoro-ethylamino)-pyrido[3,2-d]pyrimidin-2-ylamino]-methyl}-benzenesulfonamide] | < 0.1 | < 5 |
